From the supplement of paper PMC11061612

Key:
Experiment in all cases: Bliss excess, mean over the matrix (fraction); higher = more synergy
[1] = test system: LU-65 (Non-Small Cell Lung Carcinoma)
How it was run: (§1)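 After 24 hours at 37°C and 5% CO2 in 1536-well plates, cells in DMEM/F12 or RPMI plus 10% FBS received two-drug dose matrices for 72 hours. Viability came from CellTiter-Glo 2.0 luminescence and was scaled as inhibition, anchored at 0 by vehicle wells and at 1 by blank wells. Combination Emax is taken as the second-highest inhibition in the matrix, and Bliss excess as the observed combination effect less EA + EB − EA·EB, with EA and EB the single-agent effects.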

[2] = test system: Hs-766T (Pancreatic Carcinoma)
How it was run: as §1

[3] = test system: AMO-1 (Plasma Cell Myeloma)
How it was run: as §1

[4] = test system: ACHN (Kidney Carcinoma)
How it was run: as §1

[5] = test system: PANC-04-03 (Pancreatic Carcinoma)
How it was run: as §1

[6] = test system: UACC-62 (Melanoma)
How it was run: as §1

[7] = test system: EoL-1-cell (Acute Myeloid Leukemia)
How it was run: as §1

[8] = test system: NB69 (Neuroblastoma)
How it was run: as §1

[9] = test system: MIA-PaCa-2 (Pancreatic Carcinoma)
How it was run: as §1

[10] = test system: NCI-H727 (Other Solid Carcinomas)
How it was run: as §1

[11] = test system: YH-13 (Glioblastoma)
How it was run: as §1

[12] = test system: MLMA (Other Blood Carcinomas)
How it was run: as §1

[13] = test system: EFM-19 (Breast Carcinoma)
How it was run: as §1

[14] = test system: D-263MG (Glioblastoma)
How it was run: as §1

[15] = test system: KARPAS-299 (T-Cell Non-Hodgkin's Lymphoma)
How it was run: as §1

[16] = test system: TGW (Neuroblastoma)
How it was run: as §1

[17] = test system: Caov-4 (Ovarian Carcinoma)
How it was run: as §1

[18] = test system: SW13 (Other Solid Carcinomas)
How it was run: as §1

[19] = test system: NCI-H358 (Lung Adenocarcinoma)
How it was run: as §1

[20] = test system: Ca9-22 (Head and Neck Carcinoma)
How it was run: as §1

Row | SMILES | Bliss excess [1] | Bliss excess [2] | Bliss excess [3] | Bliss excess [4] | Bliss excess [5] | Bliss excess [6] | Bliss excess [7] | Bliss excess [8] | Bliss excess [9] | Bliss excess [10] | Bliss excess [11] | Bliss excess [12] | Bliss excess [13] | Bliss excess [14] | Bliss excess [15] | Bliss excess [16] | Bliss excess [17] | Bliss excess [18] | Bliss excess [19] | Bliss excess [20]
1 | Cc1cc2ncnn2cc1Nc1ncc2c(n1)n(C1CCOCC1)c(=O)n2C [AZD7648] + O=C(c1cc(Cc2n[nH]c(=O)c3ccccc23)ccc1F)N1CCN(C(=O)C2CC2)CC1 [Olaparib] (first compound max 10 µM, 7x7, partner max 10 µM) | -0.0146 | -0.0491 | -0.0231 | -0.0243 | -0.0369 | -0.0219 | 0.0142 | -0.0397 | -0.0246 | -0.0641 | -0.0272 | -0.0087 | -0.0652 | -0.0367 | -0.0098 | -0.0248 | -0.015 | -0.0454 | -0.0179 | -0.0072
2 | CN(CCO)CC[C@H](CSc1ccccc1)Nc1ccc(S(=O)(=O)NC(=O)c2ccc(N3CCC([C@@H](O)c4ccccc4-c4ccc(Cl)cc4)CC3)cc2)cc1S(=O)(=O)C(F)(F)F [AZD4320] + Nc1ccn([C@@H]2O[C@H](CO)[C@@H](O)C2(F)F)c(=O)n1 [Gemcitabine] (first compound max 1 µM, 7x7, partner max 0.3 µM) | -0.0667 | -0.0777 | -0.036 | 0.0947 | -0.0496 | -0.006 | 0.0217 | -0.0203 | -0.025 | 0.0335 | 0.0368 | -0.0381 | 0.0067 | -0.0625 | 0.0251 | 0.0257 | -0.0556 | -0.017 | -0.0227 | 0.0876
3 | CN(CCO)CC[C@H](CSc1ccccc1)Nc1ccc(S(=O)(=O)NC(=O)c2ccc(N3CCC([C@@H](O)c4ccccc4-c4ccc(Cl)cc4)CC3)cc2)cc1S(=O)(=O)C(F)(F)F [AZD4320] + CCN(CCO)CCCOc1ccc2c(Nc3cc(CC(=O)Nc4cccc(F)c4)[nH]n3)ncnc2c1 [AZD2811] (first compound max 1 µM, 7x7, partner max 1 µM) | -0.0437 | -0.0485 | -0.0102 | 0.0089 | -0.0435 | 0.0105 | -0.002 | -0.0077 | 0.0532 | -0.0221 | 0.0819 | 0.0437 | 0.147 | 0.0665 | 0.0104 | -0.032 | -0.0141 | -0.0152 | -0.0337 | 0.0591
4 | CN(CCO)CC[C@H](CSc1ccccc1)Nc1ccc(S(=O)(=O)NC(=O)c2ccc(N3CCC([C@@H](O)c4ccccc4-c4ccc(Cl)cc4)CC3)cc2)cc1S(=O)(=O)C(F)(F)F [AZD4320] + C1CN(CCC1(C(=O)N[C@@H](CCO)C2=CC=C(C=C2)Cl)N)C3=NC=NC4=C3C=CN4 [Capivasertib] (first compound max 1 µM, 7x7, partner max 3 µM) | -0.0108 | -0.0492 | -0.0045 | -0.0341 | -0.0875 | -0.0584 | 0.0007 | -0.0554 | -0.0476 | -0.0891 | -0.0491 | 0.0534 | -0.0292 | -0.0512 | -0.0024 | 0.0065 | -0.0357 | -0.0326 | -0.0172 | -0.0055
5 | Cc1nc(Nc2ncc(C(=O)Nc3c(C)cccc3Cl)s2)cc(N2CCN(CCO)CC2)n1 [Dasatinib] + CC(=O)Nc1cccc(-n2c(=O)n(C3CC3)c(=O)c3c(Nc4ccc(I)cc4F)n(C)c(=O)c(C)c32)c1 [Trametinib] (first compound max 2 µM, 7x7, partner max 1 µM) | -0.112 | 0.0971 | 0.058 | -0.0707 | 0.0163 | 0.0064 | -0.0157 | 0.0099 | 0.156 | -0.0357 | -0.0698 | -0.0324 | -0.0957 | -0.031 | 0.0122 | -0.0621 | -0.125 | -0.0548 | 0.004 | 0.0313
6 | CN(CCO)CC[C@H](CSc1ccccc1)Nc1ccc(S(=O)(=O)NC(=O)c2ccc(N3CCC([C@@H](O)c4ccccc4-c4ccc(Cl)cc4)CC3)cc2)cc1S(=O)(=O)C(F)(F)F [AZD4320] + Cn1cnc2c(F)c(Nc3ccc(Br)cc3Cl)c(C(=O)NOCCO)cc21 [Selumetinib] (first compound max 1 µM, 7x7, partner max 3 µM) | 0.0176 | -0.013 | 0.0579 | 0.0429 | 0.0708 | -0.0035 | 0.0593 | -0.0973 | -0.0098 | 0.0963 | -0.0219 | 0.0436 | -0.102 | -0.0094 | 0.0476 | 0.0147 | 0.0418 | 0.0166 | 0.0054 | 0.0415
7 | Cc1cc2ncnn2cc1Nc1ncc2c(n1)n(C1CCOCC1)c(=O)n2C [AZD7648] + CN(C)CCCOc1ccc(-c2ccc3ncc4c(c3c2)n(C2CCOCC2)c(=O)n4C)cn1 [AZD0156] (first compound max 10 µM, 7x7, partner max 1 µM) | 0.0053 | -0.0324 | 0.0135 | 0.0104 | 0.0016 | 0.0247 | 0.0279 | -0.0382 | -0.003 | 0.0162 | -0.0263 | -0.0187 | -0.0815 | 0.005 | 0.0477 | 0.0804 | 0.0511 | 0.0107 | 0.0054 | 0.0625
8 | N#Cc1cnc(Nc2cc(NC[C@H]3CNCCO3)c(C(F)(F)F)cn2)cn1 [SRA737] + C=CCn1c(=O)c2cnc(Nc3ccc(N4CCN(C)CC4)cc3)nc2n1-c1cccc(C(C)(C)O)n1 [AZD1775] (first compound max 10 µM, partner max 1 µM) | 0.0233 | 0.0161 | 0.0986 | -0.0285 | 0.0182 | 0.0048 | -0.0097 | 0.163 | 0.139 | 0.0694 | 0.0804 | -0.0114 | -0.044 | 0.0096 | 0.0776 | -0.0382 | 0.0532 | 0.0091 | -0.0155 | 0.154
9 | CN(CCO)CC[C@H](CSc1ccccc1)Nc1ccc(S(=O)(=O)NC(=O)c2ccc(N3CCC([C@@H](O)c4ccccc4-c4ccc(Cl)cc4)CC3)cc2)cc1S(=O)(=O)C(F)(F)F [AZD4320] + Cc1cc2ncnn2cc1Nc1ncc2c(n1)n(C1CCOCC1)c(=O)n2C [AZD7648] (first compound max 1 µM, 7x7, partner max 10 µM) | -0.007 | -0.0842 | -0.0243 | -0.0186 | -0.0556 | -0.0329 | 0.0476 | -0.0649 | -0.0636 | -0.0609 | -0.0186 | 0.0082 | -0.0326 | -0.0192 | -0.0343 | 0.0125 | -0.0277 | -0.0371 | -0.0394 | -0.0039
10 | CN(CCO)CC[C@H](CSc1ccccc1)Nc1ccc(S(=O)(=O)NC(=O)c2ccc(N3CCC([C@@H](O)c4ccccc4-c4ccc(Cl)cc4)CC3)cc2)cc1S(=O)(=O)C(F)(F)F [AZD4320] + C[C@@H]1COCCN1C2=NC(=NC(=C2)C3(CC3)[S@](=N)(=O)C)C4=C5C=CNC5=NC=C4 [AZD6738] (first compound max 1 µM, 7x7, partner max 10 µM) | -0.0092 | -0.108 | – | -0.0099 | -0.0714 | -0.0317 | 0.0252 | -0.0533 | -0.045 | -0.0735 | -0.0035 | 0.0229 | -0.0511 | -0.0424 | -0.0153 | -0.0629 | -0.027 | -0.0208 | -0.0195 | 0.0001
11 | CN(CCO)CC[C@H](CSc1ccccc1)Nc1ccc(S(=O)(=O)NC(=O)c2ccc(N3CCC([C@@H](O)c4ccccc4-c4ccc(Cl)cc4)CC3)cc2)cc1S(=O)(=O)C(F)(F)F [AZD4320] + CC(=O)O[C@H]1C(=O)[C@@]2(C)[C@H]([C@H](OC(=O)c3ccccc3)[C@]3(O)C[C@H](OC(=O)[C@H](O)[C@@H](NC(=O)c4ccccc4)c4ccccc4)C(C)=C1C3(C)C)[C@]1(OC(C)=O)CO[C@@H]1C[C@@H]2O [Paclitaxel] (first compound max 1 µM, 7x7, partner max 3 µM) | 0.0224 | -0.0002 | 0.0173 | -0.0319 | -0.0033 | 0.0953 | -0.0057 | 0.0148 | 0.0064 | 0.101 | 0.0619 | 0.0254 | 0.0898 | 0.102 | -0.079 | -0.0472 | 0.0863 | – | 0.0117 | 0.037
